The experiment can be described thus: Antagonist activity at CCR2 receptor in human THP1 cells assessed as inhibition of MCP-1 induced chemotaxis after 3 hrs.

On to `COC1COCCC1N[C@@H]1C[C@H]2CN(C(=O)OCCN3CCOCC3)C[C@@]2(C(=O)N2CCc3ncc(C(F)(F)F)cc3C2)C1` (some centres undefined), for which the IC50 was 97 nM. The same measure for `COC1COCCC1N[C@@H]1C[C@H]2CN(C(=O)OCCN3CCCC3)C[C@@]2(C(=O)N2CCc3ncc(C(F)(F)F)cc3C2)C1` (some centres undefined): 28 nM. The same measure for `COC1COCCC1N[C@@H]1C[C@H]2CN(C(=O)OCCNC(C)=O)C[C@@]2(C(=O)N2CCc3ncc(C(F)(F)F)cc3C2)C1` (some centres undefined): 18 nM; for `COC1COCCC1N[C@@H]1C[C@H]2CN(C(=O)OCC3CCOCC3)C[C@@]2(C(=O)N2CCc3ncc(C(F)(F)F)cc3C2)C1` (some centres undefined): 65 nM. The value for `COCCOC(=O)N1C[C@@H]2C[C@@H](NC3CCOCC3OC)C[C@]2(C(=O)N2CCc3ncc(C(F)(F)F)cc3C2)C1` (some centres undefined) was 41 nM; that for `COC1COCCC1N[C@@H]1C[C@H]2CN(C(=O)OCC(C)C)C[C@@]2(C(=O)N2CCc3ncc(C(F)(F)F)cc3C2)C1` (some centres undefined) was 21 nM; that for `COC1COCCC1N[C@@H]1C[C@H]2CN(C(=O)OCC(C)(C)C)C[C@@]2(C(=O)N2CCc3ncc(C(F)(F)F)cc3C2)C1` (some centres undefined) was 99 nM.

For `COC1COCCC1N[C@@H]1C[C@H]2CN(C(=O)OCc3ccccc3)C[C@@]2(C(=O)N2CCc3ncc(C(F)(F)F)cc3C2)C1` (some centres undefined), the half-inhibitory concentration (IC50) is 190 nM. With `COC1COCCC1N[C@@H]1C[C@H]2CN(C(=O)Oc3ccccc3)C[C@@]2(C(=O)N2CCc3ncc(C(F)(F)F)cc3C2)C1` (some centres undefined), the IC50 was 950 nM. The same measure for `COC(=O)N1C[C@@H]2C[C@@H](NC3CCOCC3OC)C[C@]2(C(=O)N2CCc3ncc(C(F)(F)F)cc3C2)C1` (some centres undefined): 69 nM. In the case of `COC1COCCC1N[C@@H]1C[C@H]2CN(C(N)=NC#N)C[C@@]2(C(=O)N2CCc3ncc(C(F)(F)F)cc3C2)C1` (some centres undefined), the concentration for half-maximal inhibition (IC50) came to 29 nM. Turning to `COC1COCCC1N[C@@H]1C[C@H]2CN(C(=O)NCc3ccccc3)C[C@@]2(C(=O)N2CCc3ncc(C(F)(F)F)cc3C2)C1` (some centres undefined), the half-maximal inhibitory concentration (IC50) was determined as 220 nM. The same measure for `COC1COCCC1N[C@@H]1C[C@H]2CN(C(=O)NC(C)C)C[C@@]2(C(=O)N2CCc3ncc(C(F)(F)F)cc3C2)C1` (some centres undefined): 81 nM; for `CNC(=O)N1C[C@@H]2C[C@@H](NC3CCOCC3OC)C[C@]2(C(=O)N2CCc3ncc(C(F)(F)F)cc3C2)C1` (some centres undefined): 71 nM.

Turning to `COC1COCCC1N[C@@H]1C[C@H]2CN(C(N)=O)C[C@@]2(C(=O)N2CCc3ncc(C(F)(F)F)cc3C2)C1` (some centres undefined), the IC50 came to 27 nM. The same measure for `COC1COCCC1N[C@@H]1C[C@H]2CN(C(=O)C#CC3CC3)C[C@@]2(C(=O)N2CCc3ncc(C(F)(F)F)cc3C2)C1` (some centres undefined): 39 nM; for `COC1COCCC1N[C@@H]1C[C@H]2CN(C(=O)/C=C/C(C)(C)C)C[C@@]2(C(=O)N2CCc3ncc(C(F)(F)F)cc3C2)C1` (some centres undefined): 88 nM.

In the case of `COC1COCCC1N[C@@H]1C[C@H]2CN(C(C)=O)C[C@@]2(C(=O)N2CCc3ncc(C(F)(F)F)cc3C2)C1` (some centres undefined), the IC50 amounted to 230 nM. The value for `COC1COCCC1N[C@@H]1C[C@H]2CN(c3ccccc3)C[C@@]2(C(=O)N2CCc3ncc(C(F)(F)F)cc3C2)C1` (some centres undefined) was 90 nM.

One may read the IC50 as the concentration at which inhibition is half-maximal.

The record behind these values is BindingDB's records for doi:10.1016/j.bmcl.2013.05.024 (Janssen Research and Development, 2014).
